Assay [1] deals with T1, Gag-Pol polyprotein [588-1027] (Human immunodeficiency virus type 1 group M subtype B (isolate HXB2), UniProt P04585).
T1 construct: 588-1027
As to the kind of experiment: Reverse Transcriptase Assay. The conditions noted are these: pH 7.4; 37 °C.

Assay [2] addresses T2, Gag-Pol polyprotein [588-1027,K691N,Y769C]/[588-1147,K691N,Y769C] (Human immunodeficiency virus 1, UniProt P04585, K691N/Y769C).
T2 construct: 588-1027; 588-1147
Put plainly: Reverse Transcriptase Assay.

Drawing on BindingDB's records for doi:10.1016/j.bmcl.2008.12.074 (Boehringer Ingelheim (Canada), 2009), this text covers IC50 and EC50 for six compounds.

On to `CC(C)(C)c1ccc(-c2c[nH]nc2OCC(=O)Nc2ccc(-c3ccc(CC(=O)O)cc3)cc2Cl)c(Cl)c1` [2-{4-[4-(2-{[4-(4-tert-butyl-2-chlorophenyl)-1H-pyrazol-3-yl]oxy}acetamido)-3-chlorophenyl]phenyl}acetic acid], for which, in assay [1], the IC50 (in general, the concentration that gives 50% inhibition) is greater than 3300 nM.
With `Cc1ccc(-n2nnnc2SCC(=O)Nc2ccc(-c3ccc(CC(=O)O)cc3)cc2Cl)c(Cl)c1` [2-{4-[3-chloro-4-(2-{[1-(2-chloro-4-methylphenyl)-1H-1,2,3,4-tetrazol-5-yl]sulfanyl}acetamido)phenyl]phenyl}acetic acid], the values for the IC50 in assay [2] and in assay [1] were 48 nM and 2.4 nM, respectively.
For the compound `Cc1ccc(-n2ncc(C)c2SCC(=O)Nc2ccc(-c3ccc(CC(=O)O)cc3)cc2Cl)c(Cl)c1` [2-{4-[3-chloro-4-(2-{[1-(2-chloro-4-methylphenyl)-4-methyl-1H-pyrazol-5-yl]sulfanyl}acetamido)phenyl]phenyl}acetic acid], the IC50 in assay [2] and in assay [1] was greater than 10000 nM throughout.
As to `Cc1ccc(-c2c(SCC(=O)Nc3ccc(-c4ccc(OCC(=O)O)cc4)cc3Cl)ccn2C)c(Cl)c1` [2-{4-[3-chloro-4-(2-{[2-(2-chloro-4-methylphenyl)-1-methyl-1H-pyrrol-3-yl]sulfanyl}acetamido)phenyl]phenoxy}acetic acid], the IC50 in assay [1] is greater than 1000 nM.
`Cc1ccc(-n2cc(C)nc2SCC(=O)Nc2ccccc2Cl)c(Cl)c1` [2-{[1-(2-chloro-4-methylphenyl)-4-methyl-1H-imidazol-2-yl]sulfanyl}-N-(2-chlorophenyl)acetamide]: the IC50 in assay [2] is greater than 10000 nM; in assay [1], greater than 1000 nM.
On to `Cc1[nH]nc(OCC(=O)Nc2ccc(C#CC(C)(C)CO)cc2Cl)c1-c1ccc(C(C)(C)C)cc1Cl` [2-{[4-(4-tert-butyl-2-chlorophenyl)-5-methyl-1H-pyrazol-3-yl]oxy}-N-[2-chloro-4-(4-hydroxy-3,3-dimethylbut-1-yn-1-yl)phenyl]acetamide], for which, in assay [1], the EC50 (as a rule, the concentration needed to bring the measured effect to its halfway point) is greater than 5000 nM and the IC50 was greater than 3300 nM.
